What is called EC50 is the midpoint of the concentration-response curve. Broadly, the EC90 is the point of the concentration-response curve where the effect stands at 90%. As usually defined, the fraction unbound is the share of the substance not bound to proteins or other matrix.

Data set [1] relates to SARS-CoV-2 hCoV-19/Japan/TY/WK-521 strain. Briefly: microbe, parasite or virus in culture. In kind it is cell-based. To be noted: read-out: CPE EC50.
The subject of data set [2] is SARS-CoV-2 Omicron BA.1 strain (hCoV-19/Japan/TY38-873/2021). The format is cell-based. To be noted: read-out: Viral titre EC90.
The test system of data set [3] is SARS-CoV-2 Delta strain (hCoV-19/Japan/TY11-927/2021). In kind it is cell-based. To be noted: read-out: Viral titre EC90.
For a further data set, the system named is SARS-CoV-2. The following applies: Phase 2a and Phase 2b studies; cited from earlier work.
The test system of a further data set is SARS-CoV-2 Omicron BA.2. Further details: species or system Syrian hamsters. The following applies: hamster, in vivo.
The nature of data set [4]: in vitro. To be noted: female, BALB/cAJcl, mouse, serum.
The nature of data set [5]: in vitro. The following applies: male, Syrian, hamster, serum.
The conditions of data set [6]: BALB/cAJcl, mouse, in vivo.
Data set [7] is described as follows: Protein binding of nirmatrelvir in hamster serum by equilibrium dialysis. The following applies: male, Syrian, pH 7.4. The format is in vitro ADME, Syrian hamsters. In general terms: In equilibrium dialysis free small molecules cross a membrane that holds back macromolecules.
The nature of data set [8]: Protein binding of nirmatrelvir in mouse serum by equilibrium dialysis. The format is in vitro ADME, BALB/cAJcl mice. The following applies: female, BALB/cAJcl, pH 7.4.
[9] abbreviates: Severe acute respiratory syndrome coronavirus 2, HEK-293T, 72 h.

“And” between values parts separate entries of the source, which are not always exact repeats. Equal entries are not always repeated. Where two headings read alike, the source gives them in different places.

Take `O=c1nc(NO)ccn1[C@@H]1O[C@H](CO)[C@@H](O)[C@H]1O` [NHC, β-D-N^4-hydroxycytidine]: the EC50 in data set [1] was found to be 4 ± 3.5 µM. For the same compound, the EC90 was 2.35 µM and 3.66 µM in data set [2]; 3.83 µM and 6.72 µM in data set [3].
In the case of `Cn1cnc(Cn2c(=O)[nH]/c(=N\c3cc4cn(C)nc4cc3Cl)n(Cc3cc(F)c(F)cc3F)c2=O)n1` [Ensitrelvir, ensitrelvir fumaric acid], the EC50 in [1] (setting [9]) is 0.027 ± 0.002 µM. The “Viral titres in nasal lavage fluid” value in the data set with SARS-CoV-2 was “significantly reduced viral titres”. In the data set with SARS-CoV-2 Omicron BA.2, the “Antiviral activity in the lungs (viral titres)” value is recorded as “failed to show antiviral activity”, the “Antiviral activity in the nasal turbinates compared with that of nirmatrelvir” value is recorded as “greater antiviral activity” and the “Lowering of lung viral titres compared with 750/250 mg/kg nirmatrelvir” value is recorded as “less effective”. Also, in the data set “in vitro [4]”, the unbound share (fraction unbound) was 0.024. Further, the fraction unbound in “in vitro [5]” is 0.017.
For the compound `CCC(CC)COC(=O)[C@H](C)N[P@](=O)(OC[C@H]1O[C@@](C#N)(c2ccc3c(N)ncnn23)[C@H](O)[C@@H]1O)Oc1ccccc1` [Remdesivir, remdesivir], the EC50 in [1] (setting [9]) is 0.012 ± 0.002 µM.
As for `CC(C)(C)[C@H](NC(=O)C(F)(F)F)C(=O)N1C[C@H]2[C@@H]([C@H]1C(=O)N[C@H](C#N)C[C@@H]1CCNC1=O)C2(C)C` [Nirmatrelvir, nirmatrelvir], in [6], the “f-C24h unbound drug plasma concentration” value came to 676 ± 609 ng/mL, the “f-C72h unbound drug plasma concentration” value turned out to be 1490 ± 430 ng/mL, the “t-C24h total plasma concentration” value came to 1010 ± 910 ng/mL and the “t-C48h total plasma concentration” value was 2050 ± 610 ng/mL. Also, the “t-C72h total plasma concentration” value in [6] worked out at 2230 ± 650 ng/mL. Further, the EC50 in data set [1] (setting [9]) turned out to be 0.041 ± 0.013 µM. The unbound share (fraction unbound) at 24 h, 4 µM in data set [7] is 0.596. The same compound showed a fraction unbound at 24 h, 4 µM in [8] of 0.669.

(Values after paper PMC10068418 (Journal of Antimicrobial Chemotherapy, 2023).)
